From PubChem BioAssay AID1259408 (Genetic Toxicology Data Bank (GENE-TOX), 2018)
Calls of active or inactive are those of the source. No rule for the calls is given here.

Test system: GENE-TOX genotoxicity assays, various organisms and cells
Test: GENE-TOX mutagenicity studies
[1] = Species/Cell Type: Drosophila melanogaster, Assay Type: Sex-linked recessive lethal gene mutation, Assay Code: SRL+, Evaluation Type: Evaluation A (Pre-1980)
[2] = Species/Cell Type: Escherichia coli polA (W3119 vs P3478), Assay Type: Rec-assay, DNA effects (bacterial DNA repair), Assay Code: RE1+, Evaluation Type: Evaluation A (Pre-1980)
[3] = Species/Cell Type: Salmonella typhimurium (one or more of the five standard strains: TA98, TA100, TA1535, TA1537, and TA1538), Assay Type: Histidine reverse gene mutation, Ames assay, Assay Code: SALT, Evaluation Type: Evaluation A (Pre-1980)
[4] = Species/Cell Type: Mammalian polychromatic erythrocytes, Assay Type: Micronucleus test, chromosome aberrations, Assay Code: MNTT, Evaluation Type: Evaluation B (Post-1980)

`CCOS(C)(=O)=O` was tested, and the mutagenic call (Species/Cell Type: Arabidopsis species, Assay Type: Gene mutation, Assay Code: ARM+D, Dose Response: With dose response, Evaluation Type: Evaluation A (Pre-1980)) was “active; positive”, the mutagenic call (Species/Cell Type: Aspergillus nidulans, Assay Type: Forward gene mutation, Assay Code: ASF+, Evaluation Type: Evaluation A (Pre-1980)) was “active; positive” and the mutagenic call (Species/Cell Type: Aspergillus nidulans, Assay Type: Reverse gene mutation, Assay Code: ASR+, Evaluation Type: Evaluation A (Pre-1980)) was “active; positive”. For the same compound, the mutagenic call (Species/Cell Type: Chinese hamster lung (V79) cells, Assay Type: Forward gene mutation at the HPRT or ouabain locus, Assay Code: V79+, Evaluation Type: Evaluation A (Pre-1980)) was “active; positive”, the mutagenic call (Species/Cell Type: Chinese hamster ovary (CHO) cells, Assay Type: Forward gene mutation at the HPRT locus, Assay Code: CHO+D, Dose Response: With dose response, Evaluation Type: Evaluation A (Pre-1980)) was “active; positive” and the mutagenic call [1] was “active; positive”. The mutagenic call (Species/Cell Type: Drosophila melanogaster, Sex: Male, Assay Type: Heritable translocation test, chromosome aberrations, Assay Code: DHT+, Evaluation Type: Evaluation A (Pre-1980)) was “active; positive”, the mutagenic call (Species/Cell Type: Escherichia coli WP2, Assay Type: Tryptophan reverse gene mutation, Assay Code: WP2+, Evaluation Type: Evaluation A (Pre-1980)) was “active; positive” and the mutagenic call (Species/Cell Type: Escherichia coli WP2 UVRA, Assay Type: Tryptophan reverse gene mutation, Assay Code: WPU+, Evaluation Type: Evaluation A (Pre-1980)) was “active; positive”. The mutagenic call [2] was “active; positive”, the mutagenic call (Species/Cell Type: F1 mouse, Sex: Male, Assay Type: Sperm morphology, Assay Code: SPF+, Evaluation Type: Evaluation A (Pre-1980)) was “active; positive” and the mutagenic call (Species/Cell Type: Glycine max (soybean), Assay Type: Gene mutation, Assay Code: GLM+, Evaluation Type: Evaluation A (Pre-1980)) was “active; positive”. The mutagenic call (Species/Cell Type: Hordeum vulgare (barley), Assay Type: Chromosome aberrations, Assay Code: HOC+D, Dose Response: With dose response, Evaluation Type: Evaluation A (Pre-1980)) was “active; positive”, the mutagenic call (Species/Cell Type: Hordeum vulgare (barley), Assay Type: Gene mutation, Assay Code: HOM+D, Dose Response: With dose response, Evaluation Type: Evaluation A (Pre-1980)) was “active; positive” and the mutagenic call (Species/Cell Type: Human diploid fibroblasts, Assay Type: Unscheduled DNA synthesis (UDS) in vitro, DNA effects, Assay Code: UDH+D, Dose Response: With dose response, Evaluation Type: Evaluation A (Pre-1980)) was “active; positive”. For the same compound, the mutagenic call (Species/Cell Type: Human lymphocytes, Assay Type: Micronucleus test in vitro, chromosome aberrations, Assay Code: MN7+, Evaluation Type: Evaluation A (Pre-1980)) was “active; positive”, the mutagenic call (Species/Cell Type: Human lymphocytes, Assay Type: Sister-chromatid exchange (SCE) in vitro, Assay Code: SCL+, Evaluation Type: Evaluation A (Pre-1980)) was “active; positive” and the mutagenic call (Species/Cell Type: Human, Assay Type: Sister-chromatid exchange (SCE) in vitro, Assay Code: SC1+D, Dose Response: With dose response, Evaluation Type: Evaluation A (Pre-1980)) was “active; positive”. For the same compound, the mutagenic call (Species/Cell Type: Mammalian germ cells, Sex: Male, Assay Type: Chromosome aberrations in vivo, Assay Code: CY9T, Evaluation Type: Evaluation A (Pre-1980)) was “no conclusion”, the mutagenic call (Species/Cell Type: Mammalian polychromatic erythrocytes, Assay Type: Micronucleus test, chromosome aberrations, Assay Code: MNT+, Evaluation Type: Evaluation A (Pre-1980)) was “active; positive” and the mutagenic call (Species/Cell Type: Mouse germ cells, Sex: Male, Assay Type: Unscheduled DNA synthesis (UDS) in vivo, DNA effects, Assay Code: UDT+, Evaluation Type: Evaluation A (Pre-1980)) was “active; positive”. For the same compound, the mutagenic call (Species/Cell Type: Mouse lymphoma (L5178Y) cells, Assay Type: Forward gene mutation at the thymidine kinase (TK) locus, chromosome aberrations, Assay Code: L51+, Evaluation Type: Evaluation A (Pre-1980)) was “active; positive”, the mutagenic call (Species/Cell Type: Mouse, Sex: Female, Assay Type: Spot test, gene mutation, Assay Code: MST+, Evaluation Type: Evaluation A (Pre-1980)) was “active; positive” and the mutagenic call (Species/Cell Type: Mouse, Sex: Male, Assay Type: Heritable translocation test, chromosome aberrations, Assay Code: HTT+D, Dose Response: With dose response, Evaluation Type: Evaluation A (Pre-1980)) was “active; positive”. The mutagenic call (Species/Cell Type: Mouse, Sex: Male, Assay Type: Specific locus test, gene mutation, Assay Code: SLT+, Evaluation Type: Evaluation A (Pre-1980)) was “active; positive”, the mutagenic call (Species/Cell Type: Mouse, Sex: Male, Assay Type: Sperm morphology, Assay Code: SPI+, Evaluation Type: Evaluation A (Pre-1980)) was “active; positive” and the mutagenic call (Species/Cell Type: Neurospora crassa, Assay Type: Aneuploidy, chromosome aberrations, Assay Code: NEN-, Evaluation Type: Evaluation A (Pre-1980)) was “inactive; negative”. For the same compound, the mutagenic call (Species/Cell Type: Neurospora crassa, Assay Type: Forward gene mutation, Assay Code: NEF+, Evaluation Type: Evaluation A (Pre-1980)) was “active; positive”, the mutagenic call (Species/Cell Type: Neurospora crassa, Assay Type: Reverse gene mutation, Assay Code: NER+, Evaluation Type: Evaluation A (Pre-1980)) was “active; positive” and the mutagenic call (Species/Cell Type: Nonhuman bone marrow, Assay Type: Chromosome aberrations, in vivo, Assay Code: CY#+, Evaluation Type: Evaluation A (Pre-1980)) was “active; positive”. For the same compound, the call (Species/Cell Type: Nonhuman, Assay Type: In vivo carcinogenicity studies, Assay Code: CCG+, Evaluation Type: Evaluation A (Pre-1980)) was “active; positive”, the mutagenic call (Species/Cell Type: Nonhuman, Assay Type: Sister-chromatid exchange (SCE) in vitro, Assay Code: SC2+D, Dose Response: With dose response, Evaluation Type: Evaluation A (Pre-1980)) was “active; positive” and the mutagenic call (Species/Cell Type: Nonhuman, Assay Type: Sister-chromatid exchange (SCE) in vivo, Assay Code: SC3+D, Dose Response: With dose response, Evaluation Type: Evaluation A (Pre-1980)) was “active; positive”. For the same compound, the mutagenic call (Species/Cell Type: Plant, Assay Type: Micronucleus test, chromosome aberrations, Assay Code: MNP-, Evaluation Type: Evaluation A (Pre-1980)) was “inactive; negative”, the mutagenic call (Species/Cell Type: Rodents, Sex: Male, Assay Type: Dominant lethal test, Assay Code: DLT+D, Dose Response: With dose response, Evaluation Type: Evaluation A (Pre-1980)) was “active; positive” and the mutagenic call (Species/Cell Type: Saccharomyces cerevisiae, Assay Type: Aneuploidy, chromosome aberrations, Assay Code: YEN+, Evaluation Type: Evaluation A (Pre-1980)) was “active; positive”. The mutagenic call (Species/Cell Type: Saccharomyces cerevisiae, Assay Type: Forward gene mutation, Assay Code: YEF+, Evaluation Type: Evaluation A (Pre-1980)) was “active; positive”, the mutagenic call (Species/Cell Type: Saccharomyces cerevisiae, Assay Type: Mitotic recombination or gene conversion, Assay Code: YEC+, Evaluation Type: Evaluation A (Pre-1980)) was “active; positive” and the mutagenic call (Species/Cell Type: Saccharomyces cerevisiae, Assay Type: Mitotic recombination or gene conversion, Assay Code: YEH+, Evaluation Type: Evaluation A (Pre-1980)) was “active; positive”. The mutagenic call (Species/Cell Type: Saccharomyces cerevisiae, Assay Type: Reverse gene mutation, Assay Code: YER+, Evaluation Type: Evaluation A (Pre-1980)) was “active; positive”, the mutagenic call (Species/Cell Type: Salmonella typhimurium (one or more of the five standard strains: TA98, TA100, TA1535, TA1537, and TA1538), Assay Type: Histidine reverse gene mutation, Ames assay, Assay Code: SAL+, Evaluation Type: Evaluation A (Pre-1980)) was “active; positive” and the mutagenic call (Species/Cell Type: Salmonella typhimurium, Escherichia coli, Serratia marcesens, Neurospora crassa, Saccharomyces cerevisiae, Chinese hamst, Assay Type: Forward and reverse gene mutation, lethal mutation, mitotic recombination and gene conversion, DNA effects, host-mediate, Assay Code: HM8+, Evaluation Type: Evaluation A (Pre-1980)) was “active; positive”. The mutagenic call (Species/Cell Type: Schizosaccharomyces pombe, Assay Type: Forward gene mutation, Assay Code: YEY+, Evaluation Type: Evaluation A (Pre-1980)) was “active; positive”, the mutagenic call (Species/Cell Type: Schizosaccharomyces pombe, Assay Type: Reverse gene mutation, Assay Code: YEZ+, Evaluation Type: Evaluation A (Pre-1980)) was “active; positive” and the mutagenic call (Species/Cell Type: Syrian hamster embryo (SA7/SHE) cells, Assay Type: Cell transformation, viral enhanced, Assay Code: CT7+, Evaluation Type: Evaluation A (Pre-1980)) was “active; positive”. The mutagenic call (Species/Cell Type: Syrian hamster embryo (SHE) cells, Assay Type: Cell transformation, clonal assay, Assay Code: CTC+, Evaluation Type: Evaluation A (Pre-1980)) was “active; positive”, the mutagenic call (Species/Cell Type: Syrian hamster embryo (SHE) cells, Assay Type: Cell transformation, focus assay, Assay Code: CTF+, Evaluation Type: Evaluation A (Pre-1980)) was “active; positive” and the mutagenic call (Species/Cell Type: Tradescantia species, Assay Type: Chromosome aberrations, Assay Code: TRC+D, Dose Response: With dose response, Evaluation Type: Evaluation A (Pre-1980)) was “active; positive”. The mutagenic call (Species/Cell Type: Tradescantia species, Assay Type: Gene mutation, Assay Code: TRM+D, Dose Response: With dose response, Evaluation Type: Evaluation A (Pre-1980)) was “active; positive”, the mutagenic call (Species/Cell Type: Vicia faba, Assay Type: Chromosome aberrations, Assay Code: VIC+D, Dose Response: With dose response, Evaluation Type: Evaluation A (Pre-1980)) was “active; positive” and the mutagenic call (Species/Cell Type: Zea mays (corn), Assay Type: Gene mutation, Assay Code: ZEM+D, Dose Response: With dose response, Evaluation Type: Evaluation A (Pre-1980)) was “active; positive”.

With `[Cl][Pt-2]([Cl])([Cl])[Cl]` the mutagenic call (Species/Cell Type: Chinese hamster ovary (CHO) cells, Assay Type: Forward gene mutation at the HPRT locus, Assay Code: CHOT, Evaluation Type: Evaluation B (Post-1980)) was “no conclusion”.

With `FC(F)OC(F)(F)C(F)Cl` (centres undefined) the mutagenic call (Species/Cell Type: Chinese hamster lung (V79) cells, Assay Type: Forward gene mutation at the HPRT or ouabain locus, Assay Code: V79-, Evaluation Type: Evaluation A (Pre-1980)) was “inactive; negative”, the mutagenic call (Species/Cell Type: Human lymphocytes, Assay Type: Sister-chromatid exchange (SCE) in vivo, Assay Code: SCY+, Evaluation Type: Evaluation B (Post-1980)) was “active; positive” and the mutagenic call (Species/Cell Type: Mouse, Sex: Male, Assay Type: Sperm morphology, Assay Code: SPIT, Evaluation Type: Evaluation A (Pre-1980)) was “no conclusion”. For the same compound, the mutagenic call (Species/Cell Type: Nonhuman, Assay Type: Sister-chromatid exchange (SCE) in vitro, Assay Code: SC2T, Evaluation Type: Evaluation B (Post-1980)) was “no conclusion” and the mutagenic call [3] was “no conclusion”.

With `COc1cc(/C=N/NC(=O)COc2ccc(Br)cc2CN2CCOCC2)ccc1O` the mutagenic call (Species/Cell Type: Saccharomyces cerevisiae, Assay Type: Reverse gene mutation, Assay Code: YERT, Evaluation Type: Evaluation A (Pre-1980)) was “no conclusion”.

In the case of `CCN(CC)c1ccc2cc3ccc(=[N+](CC)CC)cc-3oc2c1`, the mutagenic call [1] is reported as “active; positive”.

In the case of `O=C(O)c1ccccc1NCCc1ccccc1`, the mutagenic call [4] is reported as “no conclusion”.

In the case of `Cc1ccc(N2CC[N+](C)([O-])CC2)c2c(=O)c3ccc(Cl)cc3sc12`, the mutagenic call [3] is reported as “no conclusion”.

With `CC(C)C(Br)Br` the mutagenic call [2] was “active; positive”.

In the case of `C/C=C1\C[C@H]2[C@@H](OC)Nc3cc(O)c(OC)cc3C(=O)N2C1`, the mutagenic call [4] is reported as “no conclusion”.

For `CC(=O)Nc1ccc([C@@H]2O[C@H]2c2ccccc2)cc1`, the mutagenic call [3] was “no conclusion”.
